In the OligoGym collection:
After the bases stand the sugars from the 5' end (letter, count) and the backbone: PS all phosphorothioate, else s phosphorothioate and o phosphodiester by linkage. Methylation of C is not given here. e = 2'-O-(2-methoxyethyl) (MOE); k = constrained ethyl (cEt); d = 2'-deoxy (DNA); m = 2'-O-methyl

Target: HSD17B13
Details: ASO, HepaRG

Sequence | target mRNA inhibition (1 µM) [%] | further results
ACTCCCCAAACATGGA (sugars k3 d10 k3, PS) | 48 | 
CACTATCAGAACAGTT (sugars k3 d10 k3, PS) | 24 | 
CGTTTAAATCAGAGCA (sugars k3 d10 k3, PS) | 54 | 
CAAGATTAGTCTTGAT (sugars k3 d10 k3, PS) | 27 | 
AGGCAGTTGAAGTTGA (sugars k3 d10 k3, PS) | 47 | 
GTTGTTAATGTAGTGT (sugars k3 d10 k3, PS) | 77 | target mRNA inhibition (0.02 µM): 0%; target mRNA inhibition (0.078 µM): 18%; target mRNA inhibition (0.313 µM): 42%; target mRNA inhibition (1.25 µM): 67%; target mRNA inhibition (5 µM): 90%
GAAATTGATACACCAA (sugars kkdddddddddkekek, PS) | 68 | 
GAGATAAAGCTGCCTG (sugars kkdddddddddkekek, PS) | 40 | 
GAACACTGTCATAAAG (sugars k3 d10 k3, PS) | 43 | 
TACACTGACAACCCTT (sugars k3 d10 k3, PS) | 56 | 
CTTTTAGTCAGGTAGA (sugars k3 d10 k3, PS) | 33 | 
TTATTATGTGATTGAG (sugars k3 d10 k3, PS) | 23 | 
TAAAGGTTTCTGTTGC (sugars k3 d10 k3, PS) | 66 | target mRNA inhibition (0.02 µM): 0%; target mRNA inhibition (0.078 µM): 9%; target mRNA inhibition (0.313 µM): 32%; target mRNA inhibition (1.25 µM): 67%; target mRNA inhibition (5 µM): 74%
CCAAATCAGGTAGTTT (sugars k3 d10 k3, PS) | 13 | 
TTGCAGTTATTAGAAG (sugars k3 d1 m1 d8 k3, PS) | 17 | 
AATAGCCAGTACAGTT (sugars k3 d10 k3, PS) | 46 | 
GATCUCTTAGCTGTGC (sugars k3 d1 m1 d8 k3, PS) | 65 | 
GATAAAGCTGCCTGCT (sugars k3 d10 k3, PS) | 42 | 
CCCGCCCTTAAGTCAT (sugars k3 d10 k3, PS) | 45 | 
CAGACCTATGAAAAAC (sugars k3 d10 k3, PS) | 26 | 
TCCCACAGAACCAATA (sugars k3 d10 k3, PS) | 24 | 
AGACAATGACATAGAC (sugars k3 d10 k3, PS) | 14 | 
AGTGCATCTTAAGATA (sugars k3 d10 k3, PS) | 57 | 
GTCAGTAGAGAGCATA (sugars k3 d10 k3, PS) | 85 | target mRNA inhibition (0.02 µM): 0%; target mRNA inhibition (0.078 µM): 0%; target mRNA inhibition (0.313 µM): 27%; target mRNA inhibition (1.25 µM): 78%; target mRNA inhibition (5 µM): 74%

Sequence | target mRNA inhibition (1 µM) [%] | further results
CTGATGTCAGACCTCT (sugars k3 d10 k3, PS) | 35 | 
TATATGTTGATGTTAC (sugars k3 d10 k3, PS) | 34 | 
CATATGTGAAGAGCTG (sugars k3 d9 k3 e1, PS) | 50 | 
CTCAGGCTGTAAGAGT (sugars k3 d10 k3, PS) | 21 | 
TCCTGTGTTAGCTTTA (sugars k3 d1 m1 d8 k3, PS) | 72 | 
AGGATGATGTTCATGG (sugars k3 d10 k3, PS) | 88 | target mRNA inhibition (0.02 µM): 25%; target mRNA inhibition (0.078 µM): 27%; target mRNA inhibition (0.313 µM): 71%; target mRNA inhibition (1.25 µM): 80%; target mRNA inhibition (5 µM): 71%
CTTACATGATTAAGCA (sugars k3 d10 k3, PS) | 44 | 
GCTATAGGTAGCTAAT (sugars k3 d10 k3, PS) | 20 | 
GATACCCAGGTTGCTT (sugars k3 d10 k3, PS) | 53 | 
TTAAGATACCCAGGTT (sugars k3 d10 k3, PS) | 37 | 
CACGAAGCCTGAATGC (sugars k3 d10 k3, PS) | 24 | 
TCCAAATCAGGTAGTT (sugars k3 d10 k3, PS) | 22 | 
TGCAGATTATTATGTG (sugars k3 d10 k3, PS) | 38 | 
CTGGAAGGAGGATTCA (sugars k3 d10 k3, PS) | 39 | 
GCCAAAAATCAGCCAC (sugars k3 d10 k3, PS) | 11 | 
TGTCCTAGGATGTTGA (sugars k3 d10 k3, PS) | 41 | 
AGTCAGTATCCCCTCA (sugars k3 d10 k3, PS) | 82 | target mRNA inhibition (0.02 µM): 6%; target mRNA inhibition (0.078 µM): 14%; target mRNA inhibition (0.313 µM): 32%; target mRNA inhibition (1.25 µM): 70%; target mRNA inhibition (5 µM): 74%
ATCAAGACATTCTAGC (sugars k4 m1 d8 k3, PS) | 37 | 
GTGCATCTTAAGATAC (sugars k3 d1 m1 d8 k3, PS) | 40 | 
TCATTTAGAATACGCT (sugars k3 d10 k3, PS) | 20 | 
CCTCGATCCTATATAC (sugars kkdddddddddkekek, PS) | 3 | 
TTATGTAATAGCCAGT (sugars k3 d10 k3, PS) | 77 | target mRNA inhibition (0.02 µM): 16%; target mRNA inhibition (0.078 µM): 21%; target mRNA inhibition (0.313 µM): 59%; target mRNA inhibition (1.25 µM): 78%; target mRNA inhibition (5 µM): 89%
CATAAGGCCGATTCAT (sugars k3 d10 k3, PS) | 32 | 
TGGCTACAGATTGGAA (sugars k3 d10 k3, PS) | 55 | 

Sequence | target mRNA inhibition (1 µM) [%] | further results
TTTCCTCCACACCGCG (sugars k3 d10 k3, PS) | 18 | 
GCATATTCATTTGGCC (sugars k3 d10 k3, PS) | 6 | 
GTTGCACCGTTTTGGG (sugars k3 d10 k3, PS) | 56 | 
TCACCACGATTGTTAC (sugars k3 d10 k3, PS) | 34 | 
CTCAGAGTTCAGGCAA (sugars k3 d10 k3, PS) | 67 | 
TGAAGTTAGTATAGTT (sugars kkdddddddddkekek, PS) | 46 | 
ATACTGTCCCAGCATT (sugars k3 d10 k3, PS) | 32 | 
GTCGGTCACCTTTCAT (sugars k3 d9 k3 e1, PS) | 68 | 
GTATCATTTGGCTTAA (sugars k3 d10 k3, PS) | 29 | 
TTGTTAGAGTGCTTAG (sugars k3 d10 k3, PS) | 76 | 
GGTAATCTCTTCATCC (sugars k3 d10 k3, PS) | 9 | 
GGCAAAAGGAGCCAGT (sugars k3 d10 k3, PS) | 43 | 
TGATGTAGTGGGAGTC (sugars k3 d1 m1 d8 k3, PS) | 43 | 
AGTATAGTTATCTTCT (sugars k3 d10 k3, PS) | 67 | 
ATGTTTATGTAAGCAC (sugars kkdddddddddkekek, PS) | 61 | 
TCTAAAGTGCTGGTTG (sugars k3 d10 k3, PS) | 34 | 
CTTTTGGTGGACTTCA (sugars k3 d10 k3, PS) | 10 | 
TTAATGCCACCCTACC (sugars k3 d10 k3, PS) | 19 | 
CTATGCAAGCCTTCAC (sugars k3 d10 k3, PS) | 19 | 
TTCCGGTAAGAATTTC (sugars k3 d10 k3, PS) | 33 | 
TAGTTAGAATAGTCTT (sugars k3 d10 k3, PS) | 23 | 
GGCTACAGATTGGAAT (sugars k3 d10 k3, PS) | 23 | 
AACCAATATGCTCTGT (sugars k3 d10 k3, PS) | 51 | 
CATTCTGTGTTCTTGT (sugars k3 d10 k3, PS) | 60 | 

Sequence | target mRNA inhibition (1 µM) [%] | further results
GACAATGGTTGATAGT (sugars k3 d10 k3, PS) | 67 | 
ATTGTCTAAACATCTC (sugars kkdddddddddkekek, PS) | 62 | 
TCAGTATCCCCTCAAA (sugars k3 d10 k3, PS) | 64 | 
ACCAAGTAGCTTACAT (sugars k3 d10 k3, PS) | 2 | 
GAAGGATTTCTAGGAT (sugars k3 d10 k3, PS) | 71 | target mRNA inhibition (0.02 µM): 0%; target mRNA inhibition (0.078 µM): 0%; target mRNA inhibition (0.313 µM): 24%; target mRNA inhibition (1.25 µM): 61%; target mRNA inhibition (5 µM): 88%
CAGTTTTCCTCATGAT (sugars kkdddddddddkekek, PS) | 59 | 
GTTACATCACCCACTT (sugars k3 d10 k3, PS) | 41 | 
AGGTTGAGATAAAGCT (sugars kkdddddddddkekek, PS) | 60 | 
AGCTGTGCACTCATTC (sugars k3 d10 k3, PS) | 57 | 
TTTATTGGTATGGTAA (sugars k3 d10 k3, PS) | 25 | 
AAATTGTCTAAACATC (sugars k3 d10 k3, PS) | 24 | 
TGTAATAGCCAGTACA (sugars k3 d1 m1 d8 k3, PS) | 40 | 
CAGGAATGCATAAGAG (sugars k3 d10 k3, PS) | 33 | 
TCACCTTTCATAATGT (sugars k3 d10 k3, PS) | 63 | 
AGAGGGTCCACTTTTG (sugars k3 d10 k3, PS) | 34 | 
GCAAATACAGCAGTAC (sugars k3 d10 k3, PS) | 56 | 
GTTAGAATAGTCTTCA (sugars k3 d1 m1 d8 k3, PS) | 42 | 
CATAGTGGACTTCATT (sugars k3 d10 k3, PS) | 34 | 
TTAAACCTTCCCTGTG (sugars k3 d1 m1 d8 k3, PS) | 23 | 
CTCTTATCTGATATGA (sugars k3 d10 k3, PS) | 7 | 
GTTCTTGTTGATATTC (sugars k3 d10 k3, PS) | 84 | target mRNA inhibition (0.02 µM): 35%; target mRNA inhibition (0.078 µM): 51%; target mRNA inhibition (0.313 µM): 77%; target mRNA inhibition (1.25 µM): 92%; target mRNA inhibition (5 µM): 96%
CAAGGAGTATGACAAC (sugars k3 d10 k3, PS) | 6 | 
CTCCAATACAGGCCAT (sugars k3 d10 k3, PS) | 20 | 
TCTACACTAATATTGA (sugars k3 d10 k3, PS) | 21 | 
